Experiment: Measurement of 19F spin-lattice relaxation time (T1) by inversion recovery, 500 MHz NMR
Type: physicochemical
Settings: 50 mM in CDCl3, 36° C.
Experimental: (Measurement of ^19F Spin-Lattice Relaxation Time (T1))
A compound was dissolved in a deuterated chloroform solution at a concentration of 50 mM, and the longitudinal relaxation time (T1) of ^19F nucleus was measured through an inversion recovery method using a 500 MHz NMR device under the conditions shown below.
Measurement Conditions • NMR device: JNM-ECA500 (manufactured by JEOL) • Measurement temperature: 36° C. • Pulse sequence: double_pulse • relaxation_delay: 10[s] • tau_interval: 4, 3, 2, 1, 0.8, 0.6, 0.4, 0.2, 0.1[s], 80, 60, 40, 20, 10, 8, 6, 4, 2[ms] • Number of times of integration: 16 times

CC1(C)CC(Oc2cccc(C(F)(F)F)c2)CC(C)(C)N1[O] [Compound 19]
T1 (19F spin-lattice relaxation time): 0.110 s

CCC1(CC)CC(OCCOC(C(F)(F)F)(C(F)(F)F)C(F)(F)F)CC(CC)(CC)N1[O] [Compound 23]
T1 (19F spin-lattice relaxation time): 0.118 s

CC1(C)CC(OCCCC(F)(F)F)CC(C)(C)N1[O] [Compound 14]
T1 (19F spin-lattice relaxation time): 0.117 s

CCC1(CC)CC(OCCCCOC(C(F)(F)F)(C(F)(F)F)C(F)(F)F)CC(C)(C)N1[O] (stereo not shown) [Compound 25, 4-(4-((1,1,1,3,3,3-hexafluoro-2-(trifluoromethyl)propane-2-yl)oxy)butoxy)-2,2-diethyl-6,6-dimethylpiperidine-1-oxyl]
T1 (19F spin-lattice relaxation time): 0.127 s

CC1(C)CC(OCCCCCCCCOC(C(F)(F)F)(C(F)(F)F)C(F)(F)F)CC(C)(C)N1[O] [Compound 27, 4-((8-((1,1,1,3,3,3-hexafluoro-2-(trifluoromethyl)propane-2-yl)oxy)octyl)oxy)-2,2,6,6-tet ramethylpiperidine-1-oxyl]
T1 (19F spin-lattice relaxation time): 0.130 s

CC1(C)CC(OCCC(F)(F)F)CC(C)(C)N1[O] [Compound 13]
T1 (19F spin-lattice relaxation time): 0.105 s

CC1(C)CC(OCCCCCCCCCCCCCCCCOC(C(F)(F)F)(C(F)(F)F)C(F)(F)F)CC(C)(C)N1[O] [Compound 29]
T1 (19F spin-lattice relaxation time): 0.284 s

CC1(C)CC(OC(C(F)(F)F)(C(F)(F)F)C(F)(F)F)CC(C)(C)N1[O] [Compound 15, 4-((1,1,1,3,3,3-hexafluoro-2-(trifluoromethyl)propane-2-yl)oxy)-2,2,6,6-tetramethylpiper idine-1-oxyl]
T1 (19F spin-lattice relaxation time): 0.094 s

CC1(C)CC(OCCCCOC(C(F)(F)F)C(F)(F)F)CC(C)(C)N1[O] [Compound 26, 4-(4-((1,1,1,3,3,3-hexafluoropropane-2-yl)oxy)butoxy)-2,2,6,6-tetramethylpiperidine-1-o xyl]
T1 (19F spin-lattice relaxation time): 0.130 s

CC1(C)CC(OCC(F)(F)F)CC(C)(C)N1[O] [Compound 17]
T1 (19F spin-lattice relaxation time): 0.101 s

CC1(C)CC(OC(C(F)(F)F)C(F)(F)F)CC(C)(C)N1[O] [Compound 16]
T1 (19F spin-lattice relaxation time): 0.096 s

CC1(C)CC(OCCCCOC(C(F)(F)F)(C(F)(F)F)C(F)(F)F)CC(C)(C)N1[O] [Compound 11, 4-(4-((1,1,1,3,3,3-hexafluoro-2-(trifluoromethyl)propane-2-yl)oxy)butoxy)-2,2,6,6-tetra methylpiperidine-1-oxyl]
T1 (19F spin-lattice relaxation time): 0.134 s

CC1(C)CC(OC(C(F)(F)F)(C(F)(F)F)C(F)(F)F)CC(C)(C)N1[O] [Compound 24, 4-((1,1,1,3,3,3-hexafluoro-2-(trifluoromethyl)propane-2-yl)oxy)-2,2,6,6-tetramethylpiperidine-1-oxyl]
T1 (19F spin-lattice relaxation time): 0.092 s

CC1(C)CC(Oc2cc(C(F)(F)F)cc(C(F)(F)F)c2)CC(C)(C)N1[O] [Compound 20]
T1 (19F spin-lattice relaxation time): 0.108 s

CC1(C)CC(Oc2ccc(C(F)(F)F)cc2)CC(C)(C)N1[O] [Compound 21]
T1 (19F spin-lattice relaxation time): 0.123 s

CC1(C)CC(OCCCCCCCCCCCCOC(C(F)(F)F)(C(F)(F)F)C(F)(F)F)CC(C)(C)N1[O] [Compound 28]
T1 (19F spin-lattice relaxation time): 0.214 s

CCC1(CC)CC(OCCCCOC(C(F)(F)F)(C(F)(F)F)C(F)(F)F)CC(CC)(CC)N1[O] [Compound 22, 4-(4-((1,1,1,3,3,3-hexafluoro-2-(trifluoromethyl)propane-2-yl)oxy)butoxy)-2,2,6,6-tetraet hylpiperidine-1-oxyl]
T1 (19F spin-lattice relaxation time): 0.130 s

CC1(C)CC(Oc2ccccc2C(F)(F)F)CC(C)(C)N1[O] [Compound 18]
T1 (19F spin-lattice relaxation time): 0.098 s

CC1(C)CC(OCCOC(C(F)(F)F)(C(F)(F)F)C(F)(F)F)CC(C)(C)N1[O] [Compound 12]
T1 (19F spin-lattice relaxation time): 0.121 s

From patent US20240173439A1, “FLUORINE-CONTAINING COMPOUND AND CONTRAST MEDIUM” (TDK CORPORATION, priority 2021, published 2024)
